According to the supplement of paper PMC10307832:

Key:
Assay in all cases: relative viability (nuclei count vs DMSO), 5 days (fraction); higher = more cells survive
[1] = compound: COc1cc(-c2nn([C@H]3CC[C@H](N4CCN(C(C)=O)CC4)CC3)c3ncnc(N)c23)ccc1NC(=O)c1cc2ccccc2n1C + Nc1nc2[nH]cc(CCc3ccc(C(=O)N[C@@H](CCC(=O)O)C(=O)O)cc3)c2c(=O)[nH]1 [Pemetrexed] (partner 0.2 µM)
Outline: (§1)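 A single step with final 0.05% Triton X-100, 1% formaldehyde and 1 ug/ml Hoechst fixed the cells and stained nuclei 5 days after treatment. Lung cancer cell lines in 1536-well plates had been treated by pin tool the day after seeding with one drug alone or a fixed anchor-drug dose plus five library-drug doses (not always all listed) in √10 steps, and nuclei were counted on 4× images. Relative viability is the ratio of nuclei in treated wells to nuclei in vehicle wells, taken as the median of duplicate plates.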

Midostaurin + Crizotinib = compound: CO[C@@H]1[C@H](N(C)C(=O)c2ccccc2)C[C@H]2O[C@]1(C)n1c3ccccc3c3c4c(c5c6ccccc6n2c5c31)C(=O)NC4 [Midostaurin] + C[C@@H](Oc1cc(-c2cnn(C3CCNCC3)c2)cnc1N)c1c(Cl)ccc(F)c1Cl [Crizotinib] (partner 1 µM)
Outline: as §1

Midostaurin + Foretinib = compound: CO[C@@H]1[C@H](N(C)C(=O)c2ccccc2)C[C@H]2O[C@]1(C)n1c3ccccc3c3c4c(c5c6ccccc6n2c5c31)C(=O)NC4 [Midostaurin] + COc1cc2c(Oc3ccc(NC(=O)C4(C(=O)Nc5ccc(F)cc5)CC4)cc3F)ccnc2cc1OCCCN1CCOCC1 [Foretinib] (partner 0.25 µM)
Outline: as §1

[2] = compound: COc1cc(-c2nn([C@H]3CC[C@H](N4CCN(C(C)=O)CC4)CC3)c3ncnc(N)c23)ccc1NC(=O)c1cc2ccccc2n1C + CS(=O)(=O)CCNCc1ccc(-c2ccc3ncnc(Nc4ccc(OCc5cccc(F)c5)c(Cl)c4)c3c2)o1 [Lapatinib] (partner 2 µM)
Outline: as §1

[3] = compound: COc1cc(-c2nn([C@H]3CC[C@H](N4CCN(C(C)=O)CC4)CC3)c3ncnc(N)c23)ccc1NC(=O)c1cc2ccccc2n1C + CC(C)C[C@H](NC(=O)[C@H](Cc1ccccc1)NC(=O)c1cnccn1)B(O)O [Bortezomib] (partner 0.002 µM)
Outline: as §1

Row | Cell Line | relative viability ([1]; first compound 0.0128 µM) | relative viability ([1]; first compound 0.04048 µM) | relative viability ([1]; first compound 0.128 µM) | relative viability ([1]; first compound 1.28 µM) | relative viability (Midostaurin + Crizotinib; first compound 0.01 µM) | relative viability (Midostaurin + Crizotinib; first compound 0.03162 µM) | relative viability (Midostaurin + Crizotinib; first compound 0.1 µM) | relative viability (Midostaurin + Crizotinib; first compound 0.3162 µM) | relative viability (Midostaurin + Foretinib; first compound 0.01 µM) | relative viability (Midostaurin + Foretinib; first compound 0.03162 µM) | relative viability (Midostaurin + Foretinib; first compound 0.1 µM) | relative viability (Midostaurin + Foretinib; first compound 0.3162 µM) | relative viability ([2]; first compound 0.0128 µM) | relative viability ([2]; first compound 0.04048 µM) | relative viability ([2]; first compound 0.128 µM) | relative viability ([2]; first compound 1.28 µM) | relative viability ([3]; first compound 0.0128 µM) | relative viability ([3]; first compound 0.04048 µM) | relative viability ([3]; first compound 0.128 µM) | relative viability ([3]; first compound 1.28 µM)
1 | NCI-H23 | 0.66 | 0.459 | 0.688 | 0.618 | 0.479 | 0.512 | 0.355 | 0.41 | 0.685 | 1.23 | 0.648 | 0.531 | 1.28 | 1.03 | 1.07 | 1.09 | 1.06 | 0.682 | 1.18 | 0.883
2 | NCI-H322M | 0.603 | 0.643 | 0.604 | 0.538 | 0.982 | 0.948 | 0.912 | 0.905 | 1.04 | 0.923 | 1.07 | 1.14 | 0.627 | 0.679 | 0.621 | 0.474 | 1.23 | 1.52 | 1.17 | 1.17
3 | NCI-H460 | 0.0604 | 0.0561 | 0.0601 | 0.0597 | 0.903 | 0.75 | 0.898 | 0.787 | 1.02 | 0.932 | 1 | 0.95 | 1.05 | 0.994 | 0.964 | 0.741 | 1.14 | 1.26 | 1.09 | 0.99
4 | NCI-H520 | 0.637 | 0.732 | 0.603 | 0.409 | 0.69 | 0.668 | 0.691 | 0.525 | 0.68 | 0.715 | 0.661 | 0.688 | 0.818 | 0.745 | 0.685 | 0.646 | 0.741 | 0.624 | 0.358 | 0.334
5 | NCI-H596 | 0.494 | 0.536 | 0.517 | 0.431 | 0.957 | 1.12 | 1.11 | 1.1 | 0.816 | 0.969 | 0.723 | 0.896 | 0.933 | 1.2 | 0.933 | 0.842 | 1.03 | 1.31 | 0.908 | 0.954
6 | NCI-H647 | 0.19 | 0.154 | 0.172 | 0.164 | 1.06 | 0.802 | 0.832 | 0.416 | 1.14 | 1.2 | 1.2 | 1.14 | 1.24 | 0.974 | 0.981 | 0.632 | 1.13 | 1.34 | 0.877 | 0.588
7 | NCI-H650 | 1.09 | 1.05 | 1.02 | 0.897 | 0.574 | 0.748 | 0.773 | 0.444 | 0.959 | 0.95 | 1.01 | 0.767 | 1.14 | 1.36 | 0.843 | 0.837 | 1.17 | 1.23 | 0.848 | 0.867
